From patent US20220306617A1, “SUBSTITUTED 1,3-PHENYL HETEROARYL DERIVATIVES AND THEIR USE IN THE TREATMENT OF DISEASE” (NOVARTIS AG, priority 2019, published 2022) come the findings set out here.

In this assay the target is T1, abc isoform of human TMEM16A channel expressed in CHO cells (Homo sapiens, UniProt Q5XXA6, DEL476-501).
T1 construct: expressed in transfected cells; host or cells: CHO cells, doxycycline-inducible expression under Blasticidin/Zeocin selection
T1 sequence (Q5XXA6 with tags, fused parts or gaps isoform Q5XXA6-5 DEL539-564): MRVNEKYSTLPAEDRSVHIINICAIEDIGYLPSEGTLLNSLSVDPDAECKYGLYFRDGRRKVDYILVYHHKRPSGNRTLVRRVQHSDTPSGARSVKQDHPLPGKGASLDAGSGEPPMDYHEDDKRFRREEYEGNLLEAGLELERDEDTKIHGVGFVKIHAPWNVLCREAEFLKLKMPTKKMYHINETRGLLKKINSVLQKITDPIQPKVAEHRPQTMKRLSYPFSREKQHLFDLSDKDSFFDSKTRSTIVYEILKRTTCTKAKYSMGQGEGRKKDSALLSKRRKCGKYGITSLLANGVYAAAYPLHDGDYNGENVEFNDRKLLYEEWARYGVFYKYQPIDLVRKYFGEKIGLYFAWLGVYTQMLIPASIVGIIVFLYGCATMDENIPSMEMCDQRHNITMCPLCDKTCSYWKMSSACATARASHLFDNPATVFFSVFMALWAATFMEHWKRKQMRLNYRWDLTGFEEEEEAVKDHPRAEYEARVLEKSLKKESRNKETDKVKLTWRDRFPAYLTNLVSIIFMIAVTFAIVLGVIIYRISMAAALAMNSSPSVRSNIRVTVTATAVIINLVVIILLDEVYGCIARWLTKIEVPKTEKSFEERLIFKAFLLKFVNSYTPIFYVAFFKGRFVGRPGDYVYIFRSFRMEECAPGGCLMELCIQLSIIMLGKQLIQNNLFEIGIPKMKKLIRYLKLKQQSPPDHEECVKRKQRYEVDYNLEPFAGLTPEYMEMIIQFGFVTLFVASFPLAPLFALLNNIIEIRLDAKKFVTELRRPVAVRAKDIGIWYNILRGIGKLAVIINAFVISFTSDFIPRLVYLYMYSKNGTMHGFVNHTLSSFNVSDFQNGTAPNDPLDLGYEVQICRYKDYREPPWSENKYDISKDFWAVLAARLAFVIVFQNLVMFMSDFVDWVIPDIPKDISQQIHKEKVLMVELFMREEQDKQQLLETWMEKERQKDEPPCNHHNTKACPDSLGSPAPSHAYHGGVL
The assay can be described thus: Automated patch clamping (QPatch) assay to measure TMEM16A activity in whole-cell. The note with it: for EC50: CHO cells expressing human TMEM16A (abc), whole-cell automated patch clamp, Hill fit, read-out: TMEM16A QPATCH assay EC50 V3 EC50; for Emax: CHO, maximum current at highest dose relative to reference potentiator at maximal concentration (upper limit) and vehicle (lower limit), read-out: TMEM16A QPATCH assay EC50 V3 Assay Window (% TMEM16A max activation). It counts as cell-based. Put shortly:
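Whole-cell currents were recorded by planar automated patch clamp from induced CHO cells (doxycycline 1 μg/mL, 18-24 h), using a −70 mV hold, +70 mV step and −90 to +70 mV ramp. Values: Hill-fitted EC50, and activation scaled between vehicle current and reference-potentiator maximum; 0.3% DMSO final.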
(In general: Patch clamp records ionic current or voltage across a cell membrane.)

As to `CCOC(=O)[C@@H](NC(=O)c1cnc(-c2cccc(-c3cc(C(=O)NC(C4CC4)C4CC4)n(CCO)n3)c2)o1)C(C)C` [Example 4.4, (S)-Ethyl 2-(2-(3-(5-((Dicyclopropylmethyl)Carbamoyl)-1-(2-Hydroxyethyl)-1 H-Pyrazol-3-Yl)Phenyl)Oxazole-5-Carboxamido)-3-Methylbutanoate], the EC50 (in general, the midpoint of the concentration-response curve) was 130 nM and the Emax came out at 172%.

Consider `CCC(CC)NC(=O)c1cnc(-c2cccc(-c3cc(C(=O)N[C@@H](C)COC)n[nH]3)c2)o1` [Example 3.11, (S)-2-(3-(3-((1-Methoxypropan-2-Yl)Carbamoyl)-1H-Pyrazol-5-Yl)Phenyl)-N-(Pentan-3-Yl)Oxazole-5-Carboxamide], for which the half-maximal effective concentration (EC50) was 590 nM and the Emax amounted to 91%.

With `CCC(CC)NC(=O)c1cnc(-c2cccc(-c3cc(C(=O)NCc4ccc5c(c4)OCO5)n[nH]3)c2)o1` [Example 3.22, 2-(3-(3-((Benzo[d][1,3]Dioxol-5-Ylmethyl)Carbamoyl)-1H-Pyrazol-5-Yl)Phenyl)-N-(Pentan-3-Yl)Oxazole-5-Carboxamide], the EC50 turned out to be 140 nM and the Emax came to 60%.

On to `CCC(CC)NC(=O)c1cnc(-c2cccc(-c3cc(C(=O)N[C@@H](C)c4ccccc4)n[nH]3)c2)o1` [Example 3.38, (S)-N-(Pentan-3-Yl)-2-(3-(3-((1-Phenylethyl)Carbamoyl)-1H-Pyrazol-5-yl)Phenyl)Oxazole-5-Carboxamide], for which the EC50 turned out to be 150 nM and the Emax stood at 100%.

Take `CCOC(=O)[C@@H](NC(=O)c1cnc(-c2cccc(-c3cc(C(=O)NC(C(F)F)C4CC4)[nH]n3)c2)o1)C(C)C` (stereo partly drawn) [Example 2.4, (2S)-Ethyl 2-(2-(3-(5-((1-Cyclopropyl-2,2-Difluoroethyl)Carbamoyl)-1H-Pyrazol-3-Yl)Phenyl)Oxazole-5-Carboxamido)-3-Methylbutanoate]: the EC50 was determined as 20 nM and the Emax came out at 99%.

Take `COC(=O)[C@@H](NC(=O)c1cnc(-c2cccc(-c3cc(C(=O)NC(C4CC4)C4CC4)[nH]n3)c2)o1)C(C)C` [Example 1.29, (S)-Methyl 2-(2-(3-(5-((Dicyclopropylmethyl)Carbamoyl)-1 H-Pyrazol-3-yl)Phenyl)Oxazole-5-Carboxamido)-3-Methylbutanoate]: the EC50 came to 10 nM and the Emax came out at 113%.

Take `C[C@H](NC(=O)c1cnc(-c2cccc(-c3nc(C(=O)N[C@@H](C)C4CC4)n(CCCO)n3)c2)o1)C1CC1` [Example 16.2, N-((S)-1-Cyclopropylethyl)-2-(3-(5-(((S)-1-Cyclopropylethyl)Carbamoyl)-1-(3-Hydroxypropyl)-1H-1,2,4-Triazol-3-Yl)Phenyl)Oxazole-5-Carboxamide]: the EC50 amounted to 290 nM and the Emax is 140%.

With `COC(=O)[C@@H](NC(=O)c1nc(-c2cccc(-c3ncc(C(=O)NC(C4CC4)C4CC4)o3)c2)n[nH]1)C(C)C` [Example 13.7, (S)-Methyl 2-(3-(3-(5-((Dicyclopropylmethyl)Carbamoyl)Oxazol-2-Yl)Phenyl)-1H-1,2,4-Triazole-5-Carboxamido)-3-Methylbutanoate], the EC50 came out at 470 nM and the Emax was 121%.

For the compound `CCC(NC(=O)c1cnc(-c2cccc(-c3cc(C(=O)N[C@@H](C)C4CC4)[nH]n3)c2)o1)C1CC1` (stereo partly drawn) [Example 1.48, 2-(3-(5-(((S)-1-Cyclopropylethyl)Carbamoyl)-1H-Pyrazol-3-Yl)Phenyl)-N-(1-Cyclopropylpropyl)Oxazole-5-Carboxamide], the EC50 was found to be 70 nM and the Emax worked out at 59%.

With `CCC(CC)NC(=O)c1cnc(-c2cccc(-c3cc(C(=O)N[C@H](C)C4CCCCC4)n[nH]3)c2)o1` [Example 3.44, (R)-2-(3-(3-((1-Cyclohexylethyl)Carbamoyl)-1H-Pyrazol-5-Yl)Phenyl)-N-(Pentan-3-Yl)Oxazole-5-Carboxamide], the EC50 came to 230 nM and the Emax was 82%.

As for `CCC(CC)NC(=O)c1cnc(-c2cccc(-c3cc(C(=O)NCC4CCCCC4)n[nH]3)c2)o1` [Example 3.18, 2-(3-(3-((Cyclohexylmethyl)Carbamoyl)-1H-Pyrazol-5-Yl)Phenyl)-N-(Pentan-3-Yl)Oxazole-5-Carboxamide], the EC50 came to 30 nM and the Emax is 66%.

`CCC(CC)NC(=O)c1cnc(-c2cccc(-c3cc(C(=O)NC(C)C4CCC4)n[nH]3)c2)o1` (stereo not drawn) [Example 3.10, 2-(3-(3-((1-Cyclobutylethyl)Carbamoyl)-1H-Pyrazol-5-Yl)Phenyl)-N-(Pentan-3-Yl)Oxazole-5-Carboxamide]: the EC50 is 90 nM and the Emax is 95%.

As for `CCOC(=O)[C@@H](NC(=O)c1cnc(-c2cccc(-c3cc(C(=O)NC(C)C(F)(F)F)[nH]n3)c2)o1)C(C)C` (stereo partly drawn) [Example 3.55, (2S)-Ethyl 3-Methyl-2-(2-(3-(5-((1,1,1-Trifluoropropan-2-Yl)Carbamoyl)-1H-Pyrazol-3-Yl)Phenyl)Oxazole-5-Carboxamido)Butanoate], the 50% effective concentration (EC50) was determined as 20 nM and the Emax was 69%.

Consider `COC(=O)[C@@H](NC(=O)c1cnc(-c2cccc(-c3cc(C(=O)NC(C4CC4)C4CC4)n(CCO)n3)c2)o1)C(C)C` [Example 4.3, (S)-Methyl 2-(2-(3-(5-((Dicyclopropylmethyl)Carbamoyl)-1-(2-Hydroxyethyl)-1H-Pyrazol-3-Yl)Phenyl)Oxazole-5-Carboxamido)-3-Methylbutanoate], for which the 50% effective concentration (EC50) was found to be 90 nM and the Emax worked out at 167%.

Turning to `CCC(CC)NC(=O)c1cnc(-c2cccc(-c3cc(C(=O)NCc4c(F)cccc4F)n[nH]3)c2)o1` [Example 3.34, 2-(3-(3-((2,6-Difluorobenzyl)Carbamoyl)-1 H-Pyrazol-5-Yl)Phenyl)-N-(Pentan-3-Yl)Oxazole-5-Carboxamide], the EC50 was determined as 220 nM and the Emax worked out at 77%.

Take `CCC(CC)NC(=O)c1cnc(-c2cccc(-c3nnc(C(=O)NCC4CCCCC4)[nH]3)c2)o1` [Example 13.5, 2-(3-(5-((Cyclohexylmethyl)Carbamoyl)-4H-1,2,4-Triazol-3-Yl)Phenyl)-N-(Pentan-3-Yl)Oxazole-5-Carboxamide]: the EC50 came out at 30 nM and the Emax amounted to 88%.

Take `CCC(CC)NC(=O)c1nnc(-c2cccc(-c3ncc(C(=O)NC(CC)CC)o3)c2)[nH]1` [Example 13.3, N-(Pentan-3-Yl)-2-(3-(5-(Pentan-3-Ylcarbamoyl)-1 H-1,2,4-Triazol-3-Yl)Phenyl)Oxazole-5-Carboxamide]: the EC50 was found to be 50 nM and the Emax is 95%.

`CCC(CC)NC(=O)c1cnc(-c2cccc(-c3cc(C(=O)NCc4ccc(F)cc4)n[nH]3)c2)o1` [Example 3.45, 2-(3-(3-((4-Fluorobenzyl)Carbamoyl)-1 H-Pyrazol-5-Yl)Phenyl)-N-(Pentan-3-yl)Oxazole-5-Carboxamide]: the EC50 was 550 nM and the Emax was 81%.

In the case of `CCC(CC)NC(=O)c1cc(-c2cccc(-c3ncc(C(=O)Nc4cccc(C#N)c4)o3)c2)[nH]n1` [Example 1.27, N-(3-Cyanophenyl)-2-(3-(3-(Pentan-3-Ylcarbamoyl)-1 H-Pyrazol-5-yl)Phenyl)Oxazole-5-Carboxamide], the EC50 is 920 nM and the Emax stood at 86%.

As to `CCC(CC)NC(=O)c1cc(-c2cccc(-c3ncc(C(=O)N[C@@H](CC(C)C)C(=O)NCC(=O)OC(C)(C)C)o3)c2)[nH]n1` [Example 1.16, (S)-Tert-Butyl 2-(4-Methyl-2-(2-(3-(3-(Pentan-3-Ylcarbamoyl)-1 H-Pyrazol-5-yl)Phenyl)Oxazole-5-Carboxamido)Pentanamido)Acetate], the EC50 worked out at 830 nM and the Emax is 100%.

Regarding `COC(=O)C1(NC(=O)c2cnc(-c3cccc(-c4cc(C(=O)N[C@@H](C)C5CC5)[nH]n4)c3)o2)CCC1` [Example 1.49, (S)-Methyl 1-(2-(3-(5-((1-Cyclopropylethyl)Carbamoyl)-1H-Pyrazol-3-Yl)Phenyl)Oxazole-5-Carboxamido)Cyclobutanecarboxylate], the EC50 worked out at 400 nM and the Emax was determined as 70%.
